Results as given in patent US20210393855A1, “NEW HYDROGELS HAVING A SILYLATED STRUCTURE, AND METHOD FOR OBTAINING SAME” (Universite de Montpellier, priority 2015, published 2021).

Experiment: Fluorescein release from hydrogels in phosphate buffer, monitored by HPLC
Type: physicochemical
Settings: covalently grafted in PEG hydrogel, plateau after 72 hours
Source text: FIG. 2: this figure concerns tests to quantify the release of fluorescein from various hydrogels according to the invention. The hydrogels grafted with fluorescein by covalent bond show much lower release rates than the hydrogel containing fluorescein simply enclosed with no covalent bond.
In order to show the covalent incorporation of a (bio)molecule into the gel and the absence of release over time of the grafted molecules, fluorescein derivatives were selected to be chemically linked to the hydrogels in accordance with the present invention (see FIG. 2 for the exact formulae). Thus, if there were to be a release of the grafted molecules, the use of fluorescein would make it possible to easily detect it.
Fluorescein isothiocyanate (FITC) was used to prepare two types of fluorescein derivatives giving covalent bonds (triethoxysilane and dimethylhydroxysilane), as well as a non-silylated molecule used as control. Each fluorescein derivative was dissolved at a concentration of 5.2 mM in a solution of bi-silylated hybrid PEG, itself at a concentration of 10% by mass relative to the mass of DPBS used as solvent. Sodium fluoride was added, and the solutions were homogenized. Fluorescent hybrid hydrogels were obtained at 37° C. in 30 minutes. The various hydrogels were placed in phosphate buffer (10 mL) and fluorescein release was monitored by HPLC. […]

For C[Si](C)(O)CCCNC(=O)NCCCNC(=S)Nc1ccc(-c2c3ccc(=O)cc-3oc3cc(O)ccc23)c(C(=O)O)c1 [dimethythydroxyfluorescein, Hydroxydimethylsilyl Fluorescein], which “maximum release (relative to the total amount of fluorescein introduced)” value is on record?
Its value is 20%.
